Columns and labels:
[1] = tested on: SW620V cells (vincristine-resistant); experiment: Neutral red uptake viability assay, SW620V; type: cell-based, human; details: Homo sapiens, substance alone (xlsx), read-out: SW620V IC50
Method: (§1) In general, compounds 4a–e exerted little or no cytotoxic effect on either SW620 or multidrug-resistant sublines even at 10 μM, with the remarkable exception of SW620C (cisplatin-selected variant of SW620) cells, which turned out to be relatively susceptible toward ferrocenyl 4a–c. […] This trend may reflect steric or electronic contributions to cellular uptake or interaction with intracellular targets. […] However, since E/Z isomeric data are currently available only for compound 4c, this hypothesis requires validation. To quantify this effect, IC50 values were determined (Table ). […]
(§2) The normal lung fibroblast MRC-5 and colorectal adenocarcinoma SW620 cell lines used in this experiment were purchased from American Type Culture Collection (USA) via LGC […]
(§3) Standards. Multidrug-resistant variants of SW620 cells were developed in our laboratory as described previously.10, 11 All cells were cultured under standard conditions (37°C, 5% CO2, 100% humidity) in high-glucose DMEM supplemented with GlutaMaxTM, HEPES (ThermoFisher Scientific, USA), and 10% fetal bovine serum (EURx, Poland). Cells were routinely tested for potential Mycoplasma contamination using the MycoProbe Mycoplasma Detection kit (R&D System, USA).
(§4) In total, 104 cells in 100 µL of complete medium were plated per well of a 96-well plate and left overnight to allow cells to adhere to the surface. Then, the cells were exposed to a desired concentration of tested compound(s). Stock solutions were prepared in DMSO and used immediately. The final DMSO concentration was constant and nontoxic (0.1% v/v). After 70-h incubation, neutral red was added to the final concentration of 1 mM. After another 2 h, the medium was aspirated, and cells were washed twice with PBS. Dye was released using 100 µL of a solubilizer (1% acetic acid in 50% ethanol) on an orbital shaker (10 min). Absorbance was read at 540 nm using EnVision Multilabel Plate Reader (Perkin Elmer, USA). Results were expressed as % of control. The IC50 parameters were calculated using GraphPad Prism version 10 (GraphPad Software, Boston, Massachusetts USA).
(§5) The enhancement of reversal potency (ERP) value determination
(§6) For MDR reversal assays, cytotoxic agents were co-administered with compounds 4a–4e at equimolar concentrations in a range of 10 nM to 100 µM. IC₅₀ values were determined in ABCB1-overexpressing SW620 cell line variants. The enhancement of reversal potency (ERP) was calculated using the following formula: ERP = IC₅₀(drug)MDR / IC₅₀(drug + compound)MDR. All experiments were performed in triplicate (n = 3).

[2] = tested on: SW620 cells; experiment: MDR reversal assay (coadministration with anticancer drug), SW620; type: cell-based, human; details: SW620, drug alone, n = 3
Description: (§7) We investigated the potency of 4a–e to inhibit ABC transporters (ABCB1, ABCC1, and ABCG2) by determining their enhancement of reversal potency (ERP) values. ERP represents fold changes in the IC50 values of anticancer drugs in multidrug-resistant cancer sublines (ABCB1-overexpressing SW620D, SW620E, and SW620V; ABCC1-overexpressing SW620M; ABCG2-overexpressing SW620C and SW620Mito) exposed to a combination of the investigated compounds and anticancer agents at equimolar concentrations, compared with values obtained with drugs alone (Tables S2 and S3 and Figure ).
as §3, §4, §5, §6

[3] = tested on: SW620 cells; experiment: Neutral red uptake viability assay, SW620; type: cell-based, human; details: SW620, substance alone (xlsx), read-out: SW620 IC50
Method: as §1, with “To evaluate this aspect, we investigated the viability of SW620 colon cancer cells and their multidrug-resistant variants (overexpressing ABCB1, ABCC1, and ABCG2) exposed to 1 and 10 μM 4a–e using a neutral red uptake assay (Table ). In” for “In”
as §2, §3
as §4, with “Massachusetts USA). […]” for “Massachusetts USA).”
(§8) All experiments were performed in triplicate (n = 3).

[4] = tested on: ABCB1-overexpressing SW620V cells; experiment: MDR reversal assay (ERP), SW620V; type: cell-based, human; details: Homo sapiens; SW620V, drug alone, n = 3
Description: as §7, §3, §4, §5, §6

[5] = tested on: ABC-overexpressing cancer cells; parameters: method as in PMID 27326336; details: earlier finding; citation mark lost in the text, probably ref 20; cited from earlier work
[6] = tested on: SW620Mito cells (mitoxantrone-resistant); experiment: Neutral red uptake viability assay, SW620Mito; type: cell-based, human; details: Homo sapiens, substance alone (xlsx), read-out: SW620Mito IC50
Method: as §1, §2, §3
as §4, with “Massachusetts USA). […]” for “Massachusetts USA).”
as §8

[7] = tested on: ABCG2-overexpressing SW620Mito cells; experiment: MDR reversal assay (ERP), SW620Mito; type: cell-based, human; details: Homo sapiens; SW620Mito, drug alone, n = 3
Description: as §7, §3, §4, §5, §6

[8] = tested on: SW620D cells (doxorubicin-resistant); experiment: Neutral red uptake viability assay, SW620D; type: cell-based, human; details: Homo sapiens, substance alone (xlsx), read-out: SW620D IC50
Method: as §1, §2, §3, §4, §5, §6

[9] = tested on: SW620M cells (methotrexate-resistant); experiment: Neutral red uptake viability assay, SW620M; type: cell-based, human; details: Homo sapiens, substance alone (xlsx), read-out: SW620M IC50
Method: as §1, §2, §3
as §4, with “Massachusetts USA). […]” for “Massachusetts USA).”
as §8

[10] = tested on: ABCC1-overexpressing SW620M cells; experiment: MDR reversal assay (ERP), SW620M; type: cell-based, human; details: Homo sapiens; SW620M, drug alone, n = 3
Description: as §7, §3, §4, §5, §6

[11] = tested on: ABCG2-overexpressing SW620C cells; experiment: MDR reversal assay (ERP), SW620C; type: cell-based, human; details: SW620C, drug alone, n = 3
Description: as §7, §3, §4, §5, §6

[12] = tested on: ABCB1-overexpressing SW620E cells; experiment: MDR reversal assay (ERP), SW620E; type: cell-based, human; details: Homo sapiens; SW620E, drug alone, n = 3
Description: as §7, §3, §4, §5, §6

[13] = tested on: SW620E cells (etoposide-resistant); experiment: Neutral red uptake viability assay, SW620E; type: cell-based, human; details: Homo sapiens, substance alone (xlsx), read-out: SW620E IC50
Method: as §1, with “To evaluate this aspect, we investigated the viability of SW620 colon cancer cells and their multidrug-resistant variants (overexpressing ABCB1, ABCC1, and ABCG2) exposed to 1 and 10 μM 4a–e using a neutral red uptake assay (Table ). In” for “In”
as §2, §3
as §4, with “Massachusetts USA). […]” for “Massachusetts USA).”
as §8

[14] = tested on: MRC-5 fibroblasts; experiment: Neutral red uptake viability assay, MRC-5; type: cell-based, human; details: MRC-5, 10 μM, 72 h exposure, n = 3, ± SD
Method: as §2, §3
as §4, with “Massachusetts USA). […]” for “Massachusetts USA).”
as §8

Q: Which results are given for `CC[C@]1(O)C[C@H]2CN(CCc3c([nH]c4ccccc34)[C@@](C(=O)OC)(c3cc4c(cc3OC)N(C=O)[C@H]3[C@@](O)(C(=O)OC)[C@H](OC(C)=O)[C@]5(CC)C=CCN6CC[C@]43[C@@H]65)C2)C1` [Vincristine, reference compound]?
A: IC50 [1]: 24.3 µM; IC50 ([2]; Homo sapiens, SW-620): 0.125 µM; IC50 ([3]; Homo sapiens, SW-620): 0.125 µM; IC50 [4]: 24.3 µM

Q: With `CC(C)(C)c1[nH]cnc1/C=c1\[nH]c(=O)/c(=C/c2ccccc2)[nH]c1=O` [plinabulin] as the compound, how does the “activity against ABC-overexpressing cancer cells” value [5] read?
A: The value was “inactive”.

Q: With `O=C1c2c(O)ccc(O)c2C(=O)c2c(NCCNCCO)ccc(NCCNCCO)c21` [Mitoxantrone, reference compound] as the compound, how does the IC50 ([2]; Homo sapiens, SW-620) read?
A: The IC50 was 0.151 µM.

Q: What about the IC50 [6] of the same compound?
A: Its IC50 is 6.36 µM.

Q: And the IC50 [7]?
A: Its IC50 is 6.36 µM.

Q: What about the IC50 ([3]; Homo sapiens, SW-620) of the same compound?
A: The IC50 was 0.151 µM.

Q: For `COc1cccc2c1C(=O)c1c(O)c3c(c(O)c1C2=O)C[C@@](O)(C(=O)CO)C[C@@H]3O[C@H]1C[C@H](N)[C@H](O)[C@H](C)O1` [Doxorubicin, reference compound], which IC50 ([2]; Homo sapiens, SW-620) is on record?
A: The IC50 was 0.342 µM.

Q: And the IC50 [8]?
A: The IC50 was 4.26 µM.

Q: And the IC50 ([3]; Homo sapiens, SW-620)?
A: The IC50 was 0.342 µM.

Q: Which IC50 [9] does the source give for `CN(Cc1cnc2nc(N)nc(N)c2n1)c1ccc(C(=O)N[C@@H](CCC(=O)O)C(=O)O)cc1` [Methotrexate, reference compound] here?
A: Its IC50 is 54.1 µM.

Q: And the IC50 [10]?
A: The IC50 was 54.1 µM.

Q: What about the IC50 ([2]; Homo sapiens, SW-620) of the same compound?
A: Its IC50 is 6.28 µM.

Q: And the IC50 ([3]; Homo sapiens, SW-620)?
A: Its IC50 is 6.28 µM.

Q: With `N.N.[Cl][Pt][Cl]` [Cisplatin, reference compound] as the compound, how does the IC50 [2] read?
A: The IC50 was 4.34 µM.

Q: What about the IC50 [11] of the same compound?
A: The IC50 was 27.9 µM.

Q: And the IC50 [3]?
A: Its IC50 is 4.34 µM.

Q: Which IC50 ([2]; Homo sapiens, SW-620) does the source give for `COc1cc([C@@H]2c3cc4c(cc3[C@@H](O[C@@H]3O[C@@H]5CO[C@@H](C)O[C@H]5[C@H](O)[C@H]3O)[C@H]3COC(=O)[C@H]23)OCO4)cc(OC)c1O` [Etoposide, reference compound] here?
A: Its IC50 is 2.6 µM.

Q: What about the IC50 ([3]; Homo sapiens, SW-620) of the same compound?
A: Its IC50 is 2.6 µM.

Q: And the IC50 [12]?
A: The IC50 was 16 µM.

Q: And the IC50 [13]?
A: The IC50 was 16 µM.

Q: With `COc1ccc2c(C[C@@H]3NC(=O)[C@@H]4CCCN4C3=O)c(CC=C(C)C)[nH]c2c1` [TrpA, tryprostatin A, reference compound] as the compound, how does the survival rate [14] read?
A: Its survival rate is 97 ± 11%.

Source: publication PMC12257394, “Design, Synthesis, and Biological Evaluation of Ferrocenyl–Cyclo-(Gly‑L‑Pro) Hybrids Sensitizing Multidrug-Resistant Cancer Cells to Anticancer Agents” (ACS Medicinal Chemistry Letters, 2025)
